The target of assay [1] is T1, PDE1C (Homo sapiens, UniProt Q14123).
T1 construct: Plasmid Hcam3aBB contained the complete open reading frame of PDE1C3; made in house; host or cells: Sf9 (baculovirus)
The assay is described as follows: Inhibition of PDE1C. The assay is classed as biochemical.

Assay [2] concerns the target T2, PDE2 (Homo sapiens, UniProt O00408).
T2 construct: made in house; host or cells: Saccharomyces cerevisiae strain YI34
The assay can be described thus: Inhibition of PDE2. The class given is biochemical. As to the method: Recombinant production of human PDE1B, PDE2, PDE4A, PDE4B, PDE4C, PDE4D, PDE5, and PDE7 was carried out similarly to that described in Example 7 of U.S. Pat. No. 5,702,936, incorporated herein by reference, except that the yeast transformation vector employed, which is derived from the basic ADH2 plasmid described in Price et al., Methods in Enzymology, 185, pp. 308–318 (1990), incorporated yeast ADH2 promoter and terminator sequences and the Saccharomyces cerevisiae host was the protease-deficient strain BJ2–54 deposited on Aug. 31, 1998 with the American Type Culture Collection, Manassas, Va., under accession number ATCC 74465. Transformed host cells were grown in 2×SC-leu medium, pH 6.2, with trace metals, and vitamins. After 24 hours, YEP medium-containing glycerol was added to a final concentration of 2×YET/3% glycerol. […]
Phosphodiesterase activity of the preparations was determined as follows. […] The [32P]5′-AMP or [32P]5′-GMP then was quantitatively converted to free [32P]phosphate and unlabeled adenosine or guanosine by the action of snake venom 5′-nucleotidase. […] PDE enzyme was present in quantities that yield <30% total hydrolysis of substrate (linear assay conditions). […] After centrifugation (750×g for 3 minutes) to sediment the charcoal, a sample of the supernatant was taken for radioactivity determination in a scintillation counter and the PDE activity was calculated. […]

pIC50: −log10 of the molar value.

T2 sequence (O00408 whole entry): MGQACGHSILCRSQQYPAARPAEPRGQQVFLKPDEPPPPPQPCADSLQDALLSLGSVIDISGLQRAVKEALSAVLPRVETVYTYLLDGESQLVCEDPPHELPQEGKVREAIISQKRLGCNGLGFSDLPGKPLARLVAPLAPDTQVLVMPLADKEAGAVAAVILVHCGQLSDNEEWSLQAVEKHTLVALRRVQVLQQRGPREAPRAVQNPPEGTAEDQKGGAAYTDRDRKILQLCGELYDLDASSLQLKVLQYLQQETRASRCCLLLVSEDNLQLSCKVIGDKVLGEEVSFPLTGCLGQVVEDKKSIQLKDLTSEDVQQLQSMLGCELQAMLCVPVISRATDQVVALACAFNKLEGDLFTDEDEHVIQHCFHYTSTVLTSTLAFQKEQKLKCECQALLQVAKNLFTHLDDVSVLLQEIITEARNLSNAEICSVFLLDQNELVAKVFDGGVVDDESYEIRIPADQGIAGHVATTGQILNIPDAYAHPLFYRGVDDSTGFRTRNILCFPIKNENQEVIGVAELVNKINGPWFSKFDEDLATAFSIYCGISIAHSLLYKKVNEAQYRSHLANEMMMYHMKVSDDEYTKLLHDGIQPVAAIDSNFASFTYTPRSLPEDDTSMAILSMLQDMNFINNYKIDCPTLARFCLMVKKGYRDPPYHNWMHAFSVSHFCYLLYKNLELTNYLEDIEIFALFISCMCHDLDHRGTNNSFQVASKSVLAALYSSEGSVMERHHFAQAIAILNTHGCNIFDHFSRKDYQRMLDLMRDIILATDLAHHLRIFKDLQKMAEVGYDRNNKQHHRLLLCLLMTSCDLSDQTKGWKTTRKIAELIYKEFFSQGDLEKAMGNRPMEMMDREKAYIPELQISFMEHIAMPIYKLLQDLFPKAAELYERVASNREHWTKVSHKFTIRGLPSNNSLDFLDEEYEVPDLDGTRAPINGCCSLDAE

As for `CCOC(=O)c1c(C)nn(-c2cccc([N+](=O)[O-])c2)c1C` [Example 2, 3,5-dimethyl-1-(3-nitrophenyl)-1H-pyrazole-4-carboxylic acid ethyl ester], the pIC50 was 4.52 in assay [1] and 4.66 in assay [2].

The record behind these values is patent US7087634B2, “Cyclic AMP-specific phosphodiesterase inhibitors” (ICOS Corporation, priority 1999, dated 2006).
